Measured values as given in patent US8642801B2 (BHI Limited Partnership, priority 2003, dated 2014).
Where a name gives a salt, the structure may show the parent alone. Each block holds one molecule with its values, some of them ahead of it.

Assays:
[1] = molecular target: T1, Aβ1-40 (Homo sapiens, UniProt P05067); assay: MS (electrospray mass spectrometry) binding assay for Aβ40
T1 construct: most is normally secreted as a 40 (“Aβ1-40”) or 42 (“Aβ1-42”) amino acid peptide
Text: (§1) The ability of a therapeutic compound of the invention to inhibit an interaction between an amyloidogenic protein and a glycoprotein or proteoglycan constituent of a basement membrane can be assessed by an in vitro binding assay, such as that described in U.S. Pat. No. 5,164,295, the contents of which are hereby incorporated by reference. Alternatively, the ability of a compound to bind to an amyloidogenic protein or to inhibit the binding of a basement membrane constituent (e.g., HSPG) to an amyloidogenic protein (e.g., Aβ) can be measured using a mass spectrometry assay where soluble protein, e.g., Aβ, IAPP, β2M is incubated with the compound. A compound which binds to, e.g., Aβ, will induce a change in the mass spectrum of the protein. Exemplary protocols for a mass spectrometry assay employing Aβ and IAPP can be found in the Examples, the results of which are provided in Table 3. The protocol can readily be modified to adjust the sensitivity of the data, e.g., by adjusting the amount of protein and/or compound employed. Thus, e.g., binding might be detected for test compounds noted as not having detectable binding employing less sensitive test protocols.
(§2) The test compounds were synthesized and screened by mass spectrometry (“MS”) assays, except for selected compounds which were purchased from a commercial source. The MS assay gives data on the ability of compounds to bind to proteins, in this example, to β-amyloid and IAPP.
(§3) The pH value of each sample was adjusted to 7.4 (±0.2) by addition of 0.1% aqueous sodium hydroxide. The solutions were then analyzed by electrospray ionization mass spectrometry using a Waters ZQ 4000 mass spectrometer. Samples were introduced by direct infusion at a flow-rate of 25 μL/min within 2 hr. after sample preparation. The source temperature was kept at 70° C. and the cone voltage was 20 V for all the analysis. Data were processed using Masslynx 3.5 software. The MS assay gives data on the ability of compounds to bind to soluble Aβ, whereas the ThT, EM and CD assays give data on inhibition of fibrillogenesis. In Table 3, a blank box means that a value was not determined for that compound in that assay.

[2] = molecular target: T2, IAPP (Homo sapiens, UniProt P10997); assay: MS (electrospray mass spectrometry) binding assay for IAPP
T2 construct: which is a 37 amino acid peptide, derived from a larger precursor peptide, called pro-IAPP
T2 sequence (P10997 34-70 limits assumed): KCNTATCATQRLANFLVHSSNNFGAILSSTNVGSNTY

[3] = molecular target: T2, IAPP; assay: as above; conditions: Table 3C; 20 μM Aβ peptide, 100 μM compound (so in the source)
Text: as §1, §2
as §3, with “In the MS assay for Aβ40, samples were prepared as aqueous solutions (adding 20% ethanol if necessary to solubilize in water), 200 μM of a test compound and 20 μM of solubilized Aβ40, or 400 μM of a test compound and 40 μM of solubilized Aβ40. The pH” for “The pH”
The key below describes the codes used in Table 3A to quantify the binding based on the intensity of the absorption.

[4] = Table 3D, 40 μM Aβ peptide, 400 μM compound
[5] = Table 3D, 40 μM Aβ peptide, 400 μM compound (so in the source)
[6] = Table 3B, 30 μM Aβ peptide, 150 μM compound
[7] = Table 3B, 30 μM Aβ peptide, 150 μM compound (so in the source)
[8] = Table 3C, 20 μM Aβ peptide, 100 μM compound

T1 sequence (P05067 672-711 limits assumed): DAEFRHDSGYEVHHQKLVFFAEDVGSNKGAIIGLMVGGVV

SMILES: O=S(=O)([O-])CCC[N+]12CCC(CC1)CC2 [JM]
MS binding Aβ1-40 [1, 8]: − (<20%=(−))
MS binding IAPP [3]: + (20-39% binding=(+))

SMILES: CC(CCNC12CC3CC(CC(C3)C1)C2)S(=O)(=O)O (stereo not drawn) [JH, 4-(adamantyl)amino-2-butanesulfonic acid]
MS binding Aβ1-40 [1, 6]: ++ (40-59% binding=(++))
MS binding IAPP [2, 7]: +++ (60-100% binding=(+++))

SMILES: CC(CCNC1CC2CCC1C2)S(=O)(=O)O (stereo not drawn) [JJ, 4-(bicyclo[2.2.1]hept-2-ylamino)-2-butanesulfonic acid]
MS binding Aβ1-40 [1, 8]: ++ (40-74% binding=(++))
MS binding IAPP [3]: +++ (75-100% binding=(+++))

SMILES: O=S(=O)(O)CC(O)CNC1CC2CCC1C2 (stereo not drawn) [KI, 3-(bicyclo[2.2.1]hept-2-ylamino)-2-hydroxy-1-propanesulfonic acid]
MS binding IAPP [3]: + (20-39% binding=(+))

SMILES: CCCCCCNC(=O)NCCCS(=O)(=O)[O-].[Na+] [AI]
MS binding Aβ1-40 [1, 6]: +++ (60-100% binding=(+++))

SMILES: CCCCCCCCCNCCC(C)S(=O)(=O)[O-].[Na+] (stereo not drawn) [JN, 4-(nonylamino)-2-butanesulfonic acid]
MS binding Aβ1-40 [1, 8]: ++ (40-74% binding=(++))
MS binding IAPP [3]: + (20-39% binding=(+))

SMILES: CCCC(CO)NCC(O)CS(=O)(=O)O (stereo not drawn)
MS binding IAPP [3]: ++ (40-74% binding=(++))

SMILES: CCCCCCCCNCCCCS(=O)(=O)O [LJ, 4-(octylamino)-1-butanesulfonic acid]
MS binding IAPP [3]: +++ (75-100% binding=(+++))

SMILES: O=S(=O)(O)CC(O)CN1CCCCC1 (stereo not drawn) [KA, 2-hydroxy-3-piperidin-1-ylpropane-1-sulfonic acid]
MS binding IAPP [3]: ++ (40-74% binding=(++))

SMILES: O=S(=O)([O-])CC(O)C[N+]12CCC(CC1)CC2 (stereo not drawn) [JX, 1-(3-sulfo-2-hydroxypropyl) quinuclidinium, inner salt]
MS binding IAPP [3]: ++ (40-74% binding=(++))

SMILES: CCNCC(O)CS(=O)(=O)O (stereo not drawn) [JU, 3-(ethylamino)-2-hydroxy-1-propanesulfonic acid]
MS binding IAPP [3]: ++ (40-74% binding=(++))

SMILES: CCCCCCCCNCCC(C)S(=O)(=O)O (stereo not drawn) [JG, 4-(octylamino)-2-butanesulfonic acid]
MS binding IAPP [3]: +++ (75-100% binding=(+++))

SMILES: CC(CCNC1C2CC3CC(C2)CC1C3)S(=O)(=O)O (stereo not drawn) [JI, 4-(2-adamantyl)amino-2-butanesulfonic acid]
MS binding Aβ1-40 [1, 6]: +++ (60-100% binding=(+++))
MS binding IAPP [2, 7]: +++ (60-100% binding=(+++))

SMILES: CN(C)CCCCS(=O)(=O)O [LH, 4-Dimethylamino-1-butanesulfonic acid]
MS binding IAPP [3]: + (20-39% binding=(+))

SMILES: CC(CCN(C)C)S(=O)(=O)[O-].[Na+] (stereo not drawn) [JO, 4-(dimethylamino)-2-butanesulfonic acid]
MS binding Aβ1-40 [1, 8]: + (20-39% binding=(+))
MS binding IAPP [3]: ++ (40-74% binding=(++))

SMILES: CCCCCCCCNCC(O)CS(=O)(=O)O (stereo not drawn) [JW]
MS binding IAPP [3]: ++ (40-74% binding=(++))

SMILES: CCNCCCCS(=O)(=O)O [LE, 4-(ethylamino)-1-butanesulfonic acid]
MS binding IAPP [3]: ++ (40-74% binding=(++))

SMILES: O=S(=O)(O)CCCCCNC1CC2CCC1C2 (stereo not drawn) [LQ]
MS binding IAPP [3]: +++ (75-100% binding=(+++))

SMILES: CCCC(CO)NCCCCS(=O)(=O)O (racemic) [LL, 4-[(dl)-1-hydroxy-2-pentyl]amino-1-butanesulfonic acid]
MS binding IAPP [3]: ++ (40-74% binding=(++))

SMILES: CN(C)CC(O)CS(=O)(=O)[O-].[Na+] (stereo not drawn) [JT, 3-(dimethylamino)-2-hydroxy-1-propane sulfonic acid, sodium salt]
MS binding IAPP [3]: + (20-39% binding=(+))

SMILES: CC(C)CCNCC(O)CS(=O)(=O)O (stereo not drawn) [KK, 2-hydroxy-3-[(3-methylbutyl)amino]-1-propane sulfonic acid]
MS binding IAPP [3]: +++ (75-100% binding=(+++))

SMILES: CCCC(CO)NCCC(C)S(=O)(=O)O (racemic) [JL, 4-[(dl)-1-hydroxy-2-pentyl]amino-2-butane sulfonic acid]
MS binding Aβ1-40 [1, 8]: ++ (40-74% binding=(++))
MS binding IAPP [3]: ++ (40-74% binding=(++))

SMILES: O=S(=O)(O)CCCCNC12CC3CC(CC(C3)C1)C2 [LI, 4-(adamantyl)amino-1-butanesulfonic acid]
MS binding IAPP [3]: +++ (75-100% binding=(+++))

SMILES: CC(CCN)S(=O)(=O)O (stereo not drawn) [JR, 4-amino-2-butanesulfonic acid]
MS binding Aβ1-40 [1, 6]: ++ (40-59% binding=(++))
MS binding IAPP [2, 7]: +++ (60-100% binding=(+++))

SMILES: CN(C)CCS(=O)(=O)O [KQ]
MS binding IAPP [3]: + (20-39% binding=(+))

SMILES: O=S(=O)(O)CCCNC1CN2CCC1CC2 (stereo not drawn) [HQ]
MS binding Aβ1-40 [1, 4]: + (20-39% binding=(+))

Now from value to molecule:

MS binding Aβ1-40 [1, 4]: ++ (40-74% binding=(++))
MS binding IAPP [2, 5]: − (<20%=(−))
SMILES: O=S(=O)(O)CCCn1ccnc1 [HR]

MS binding Aβ1-40 [1, 6]: ++ (40-59% binding=(++))
MS binding IAPP [2, 7]: +++ (60-100% binding=(+++))
SMILES: C[C@@H](NCCCS(=O)(=O)O)c1ccccc1 [IY]

MS binding Aβ1-40 [1, 8]: ++ (40-74% binding=(++))
MS binding IAPP [3]: +++ (75-100% binding=(+++))
SMILES: O=S(=O)(O)CCCNCc1ccccc1OC(F)(F)F [IX]

MS binding Aβ1-40 [1, 4]: + (20-39% binding=(+))
MS binding IAPP [2, 5]: − (<20%=(−))
SMILES: Nc1ccc(NCCCS(=O)(=O)O)cc1 [HM]

MS binding Aβ1-40 [1, 4]: +++ (75-100% binding=(+++))
MS binding IAPP [2, 5]: ++ (40-74% binding=(++))
SMILES: O=S(=O)(O)CCCN1CCC=C(c2ccccc2)C1 [IG]

MS binding Aβ1-40 [1, 4]: ++ (40-74% binding=(++))
MS binding IAPP [2, 5]: + (20-39% binding=(+))
SMILES: O=S(=O)(O)CCCn1cccc1 [HV]

MS binding Aβ1-40 [1, 8]: − (<20%=(−))
MS binding IAPP [3]: +++ (75-100% binding=(+++))
SMILES: C[C@H]([C@@H](O)c1ccccc1)N(C)CCCS(=O)(=O)O [IZ]

MS binding Aβ1-40 [1, 4]: +++ (75-100% binding=(+++))
MS binding IAPP [2, 5]: + (20-39% binding=(+))
SMILES: O=S(=O)(O)CCCNc1ccccc1O [HU]

MS binding IAPP [3]: ++ (40-74% binding=(++))
SMILES: CC(C)(C)NCCCCS(=O)(=O)O [LD, 4-(tert-butylamino)-1-butanesulfonic acid]

MS binding Aβ1-40 [1, 4]: +++ (75-100% binding=(+++))
MS binding IAPP [2, 5]: + (20-39% binding=(+))
SMILES: CC(C)(C)OC(=O)NCCCS(=O)(=O)O [IA]

MS binding IAPP [3]: +++ (75-100% binding=(+++))
SMILES: COc1ccc(CNCCCCS(=O)(=O)O)cc1OC [LM]

MS binding Aβ1-40 [1, 8]: + (20-39% binding=(+))
MS binding IAPP [3]: + (20-39% binding=(+))
SMILES: COc1ccc(OC)c(CNCCCS(=O)(=O)O)c1 [JB]

MS binding Aβ1-40 [1, 8]: + (20-39% binding=(+))
MS binding IAPP [3]: ++ (40-74% binding=(++))
SMILES: C[C@H](NCCCS(=O)(=O)O)c1ccccc1 [JA]

MS binding Aβ1-40 [1, 8]: − (<20%=(−))
MS binding IAPP [3]: ++ (40-74% binding=(++))
SMILES: C[C@@H]([C@H](O)c1ccccc1)N(C)CCCS(=O)(=O)O [JE]

MS binding Aβ1-40 [1, 4]: ++ (40-74% binding=(++))
MS binding IAPP [2, 5]: + (20-39% binding=(+))
SMILES: O=S(=O)(O)CCCNc1ccc(F)cc1 [HT]

MS binding IAPP [3]: + (20-39% binding=(+))
SMILES: O=S(=O)(O)CCCNC(Cc1ccccc1)c1ccccc1 (stereo not drawn) [JC]

MS binding IAPP [3]: ++ (40-74% binding=(++))
SMILES: O=S(=O)(O)CCCCNC1CCCc2ccccc21 (stereo not drawn) [LG]

MS binding Aβ1-40 [1, 8]: + (20-39% binding=(+))
MS binding IAPP [3]: ++ (40-74% binding=(++))
SMILES: CCOc1ccccc1CNCCCS(=O)(=O)O [JD]

MS binding Aβ1-40 [1, 8]: ++ (40-74% binding=(++))
MS binding IAPP [3]: +++ (75-100% binding=(+++))
SMILES: COc1ccccc1CNCCCS(=O)(=O)O [IW]

MS binding Aβ1-40 [1, 8]: + (20-39% binding=(+))
MS binding IAPP [3]: ++ (40-74% binding=(++))
SMILES: CC(CCNC1CCCc2ccccc21)S(=O)(=O)O (stereo not drawn) [JF, 4-(1,2,3,4-tetrahydro-1-naphthylamino)-2-butanesulfonic acid]

MS binding Aβ1-40 [1, 4]: ++ (40-74% binding=(++))
MS binding IAPP [2, 5]: + (20-39% binding=(+))
SMILES: COc1ccc(NCCCS(=O)(=O)O)cc1 [HL]
